The record followed here is patent US6468983B2, “RNase L activators and antisense oligonucleotides effective to treat telomerase-expressing malignancies” (The Cleveland Clinic Foundation, priority 1997, dated 2002).

Series [1] has as its system intracranial U373-MG tumors. The experiment in a line: Survival of mice with intracranial malignant glioma, intracranial injection. It is filed as in vivo, Balb/c nude mice. As to the method: To establish murine models with intracranial tumors of U373-MG human malignant glioma cells, Balb/c nude mice were used. Mice (8-12 week-old male) were anesthetized using ketamine (90 mg/kg) and xylazine (10 mg/kg) and placed in a stereotaxic frame (Lab Standard w/18 Degree Earbars, Stoelting, Wood Dale, Ill.). Inoculation of 5×10^5 tumor cells (10 microliter of a tumor cell suspension of 5×10^7/ml in serum free DMEM [0.5 ml] and matrigel [0.5 ml]) was performed transcranially using a 27-gauge stainless-steel needle and microliter syringe (Perfectum, Popper & Sons, Inc., New Hyde Park, N.Y.). The needle insertion was in the skull 1 mm anterior and.2 mm lateral to the bregma and the depth of insertion was 4 mm from the skull (the caudate nucleus). The needle was left in place for 3 min and then withdrawn slowly over another minute. Two weeks after inoculation of tumor cells, mice were deeply anesthetized with ketamine/xylazine, and sacrificed by transcardiac perfusion with 4% formaldehyde. The brains were then sliced to include the injection site, and 12 μm sections were made for histological analysis. To determine the effect of 2-5A-anti-hTR on intracranial tumors, spA4-anti-hTR (3 nmol/10 microliter distilled water/3 microliter Lipofectamine, three times) was injected intracranially into the tumors via the same coordinates three weeks after inoculation of tumor cells (on Days 21, 23, and 25).

The subject of a further series is U373-MG cells. The experiment in a line: Combination with cisplatin in vitro, MTT assay. It is filed as cell-based, human. The note with it: treatment with spA4-anti-hTR. As to the method: FIG. 17. Effect of combining 2-5A-anti-hTR with cisplatin on malignant glioma U373-MG cells in vitro and in vivo. FIG. 17A Tumor cells were treated with 2-5A-anti-hTR (0.5 μM, every 24 hr) mixed with Lipofectamine (1.0 μl/25 μl DMEM) or cisplatin for three days, and their viability was determined by MTT assay. Values represent the means±S.D. FIG. 17B Tumors from U373-MG cells (1.0×10^6 cells in 0.05 ml serum free DMEM and 0.05 ml matrigel) were established subcutaneously in nude mice. After four or five weeks when the tumors were approximately 60-100 mm^3, spA4-anti-hTR (5 nmol/20 μl sterile distilled water) were administrated directly into the tumors daily for 7 days. Cisplatin (1.0 or 5.0 mg/kg/mice) was administered intraperitoneally on Days 1, 3 and 5. Five Mice were used in each treatment group. Tumor volume was then determined using calipers, and the mean sizes ±S.D. were calculated.
To determine if the anti-malignant glioma cell activity of chemotherapeutic agent, cisplatin, could be enhance with SpA4-anti-hTR, a combination therapy protocol was devised (FIG. 17). The point at which 50% cell death was achieved was using 1 microgram per ml of cisplatin plus 0.5 micromolar of SpA4-anti-hTR; whereas in the absence of SpA4-anti-hTR, >10 micrograms per ml of cisplatin were required to achieve 50% cell death (FIG. 17). […] Furthermore, we determined the effect of combining 2-5A-anti-hTR with cisplatin on U373-MG cells in vitro and in vivo. […] The IC50 of cisplatin was reduced from 10.0 to 1.0 μg/ml by combination of spA4-anti-hTR.
In general terms: Formazan colour is commonly taken as a measure of viable cells.

On to “Sp5′A2′p(5′A2p)3-[(Bu)p]2-5′GCG CGG GGA GCA AAA GCA C3′-3′T5′ (antisense GCGCGGGGAGCAAAAGCAC; 5'-thiophosphate 2-5A tetramer, butanediol linkers, 3'-3'T cap, chemistry not fully specified) [spA4-anti-hTR, 2-5A tetramer linked by butanediol linkers to 19-mer antisense against human telomerase RNA nucleotides 76 to 94]”, for which the survival of mice in series [1] (9 weeks after inoculation of tumor cells, 3 nmol plus Lipofectamine intracranially on Days 21, 23, 25) came to 50%. The mice survived in series [1] (at 62 days post-tumor implantation) is recorded as 50%. For the same substance, in series [1] (intracranial injection), the “survival of mice (in words)” value is “Enhanced survival”. Moreover, the “susceptibility of U373-MG cells to cisplatin (in words)” value with U373-MG cells was “increased the susceptibility”.
